Assay results taken from ChEMBL document CHEMBL2203027, “Lanostanoids from fungi: a group of potential anticancer compounds” (J Nat Prod, 2012).

These compounds were tested on HeLa (assay: Cytotoxicity against human HeLa cells). Conditions: Homo sapiens, HeLa.
Type: functional, cell-based
`CCOC(=O)C(C)CC(=O)C[C@@H](C)[C@H]1CC(=O)[C@@]2(C)C3=C(C(=O)[C@@H](OC(C)=O)[C@]12C)[C@@]1(C)CCC(=O)C(C)(C)[C@@H]1CC3=O` (some centres undefined) was tested, and the IC50 was 11 µM.
`C/C(=C\CC[C@@H](C)[C@H]1CC[C@@]2(C)C3=C([C@@H](O)C[C@]12C)[C@@]1(C)CCC(=O)C(C)(C)[C@@H]1CC3=O)C(=O)O` showed an IC50 of 11 µM.
In the case of `C/C(=C\CC[C@@H](C)[C@H]1C[C@H](O)[C@@]2(C)C3=CC[C@H]4C(C)(C)C(=O)CC[C@]4(C)C3=CC[C@]12C)C(=O)O`, the IC50 is reported as 11 µM.
In the case of `C[C@H](CCC(=O)O)[C@H]1CC[C@@]2(C)C3=C(CC[C@]12C)[C@@]1(C)CCC(=O)C(C)(C)[C@@H]1CC3=O`, the IC50 is reported as 11 µM.
In the case of `C/C(=C\CC[C@@H](C)[C@H]1CC[C@@]2(C)C3=C(CC[C@]12C)[C@@]1(C)CC[C@H](O)C(C)(C)[C@@H]1CC3=O)C(=O)O`, the IC50 is reported as > 300 µM.
With `C/C(=C\CC[C@@H](C)[C@H]1CC[C@@]2(C)C3=C([C@H](O)C[C@]12C)[C@@]1(C)CCC(=O)C(C)(C)[C@@H]1CC3=O)C(=O)O` the IC50 was 101 µM.
`COC(=O)C(C)CC(=O)C[C@@H](C)[C@H]1CC(=O)[C@@]2(C)C3=C(C(=O)[C@@H](OC(C)=O)[C@]12C)[C@@]1(C)CC[C@H](O)C(C)(C)[C@@H]1C[C@@H]3O` (some centres undefined) was tested, and the IC50 was 101 µM.
Work on `CC(=O)O[C@@H]1C(=O)C2=C([C@@H](O)C[C@H]3C(C)(C)[C@@H](O)CC[C@]23C)[C@]2(C)C(=O)C[C@H](/C(C)=C\C(=O)CC(C)C(=O)O)[C@@]12C` (some centres undefined) yielded an IC50 of 101 µM.
Compound `CC(CC(=O)C[C@@H](C)[C@H]1C[C@H](O)[C@@]2(C)C3=C(C(=O)C[C@]12C)[C@@]1(C)CC[C@H](O)C(C)(C)[C@@H]1C[C@@H]3O)C(=O)O` (some centres undefined) has an IC50 of 101 µM.
In the case of `CC(=O)O[C@@H]1C(=O)C2=C([C@@H](O)C[C@H]3C(C)(C)C(=O)CC[C@]23C)[C@]2(C)C(=O)C[C@H](/C(C)=C\C(=O)CC(C)C(=O)O)[C@@]12C` (some centres undefined), the IC50 is reported as > 300 µM.
With `CC(CC(=O)C[C@@H](C)[C@H]1CC(=O)[C@@]2(C)C3=C(C(=O)[C@@H](O)[C@]12C)[C@@]1(C)CCC(=O)C(C)(C)[C@@H]1C[C@@H]3O)C(=O)O` (some centres undefined) the IC50 was > 300 µM.
For `CC(CC(=O)C[C@@H](C)[C@H]1CC(=O)[C@@]2(C)C3=C(C(=O)[C@@H](O)[C@]12C)[C@@]1(C)CCC(=O)C(C)(C)[C@@H]1CC3=O)C(=O)O` (some centres undefined), the IC50 was > 300 µM.
`CC(=O)OC1C[C@H]([C@H](C)CC/C=C(/C)C(=O)O)[C@@]2(C)CC=C3C(=CC[C@H]4C(C)(C)C(=O)CC[C@]34C)[C@]12C` (some centres undefined) was tested, and the IC50 was > 300 µM.
With `C/C(=C\C(=O)CC(C)C(=O)O)[C@H]1C[C@H](O)[C@@]2(C)C3=C(C(=O)C[C@]12C)[C@@]1(C)CCC(=O)C(C)(C)[C@@H]1C[C@@H]3O` (some centres undefined) [GANODERENIC ACID A] the IC50 was > 300 µM.
Compound `C/C(=C\C(=O)CC(C)C(=O)O)[C@H]1CC(=O)[C@@]2(C)C3=C(C(=O)C[C@]12C)[C@@]1(C)CC[C@H](O)C(C)(C)[C@@H]1C[C@@H]3O` (some centres undefined) [GANODERENIC ACID B] has an IC50 of 202 µM.
Compound `C/C(=C\C(=O)CC(C)C(=O)O)[C@H]1CC(=O)[C@@]2(C)C3=C(C(=O)C[C@]12C)[C@@]1(C)CCC(=O)C(C)(C)[C@@H]1CC3=O` (some centres undefined) [GANODERENICACID F] has an IC50 of 202 µM.
With `CC(CC(=O)C[C@@H](C)[C@H]1CC(=O)[C@@]2(C)C3=C(C(=O)C[C@]12C)[C@@]1(C)CC[C@H](O)C(C)(C)[C@@H]1CC3=O)C(=O)O` (some centres undefined) [GANODERIC ACID AM1] the IC50 was 202 µM.
`C[C@H](CC(=O)C[C@@H](C)[C@H]1C[C@H](O)[C@@]2(C)C3=C(C(=O)C[C@]12C)[C@@]1(C)CCC(=O)C(C)(C)[C@@H]1C[C@@H]3O)C(=O)O` [GANODERIC ACID A] was tested, and the IC50 was > 300 µM.
In the case of `COC(=O)[C@H](C)CC(=O)C[C@@H](C)[C@H]1CC(=O)[C@@]2(C)C3=C(C(=O)C[C@]12C)[C@@]1(C)CC[C@H](O)C(C)(C)[C@@H]1C[C@@H]3O` [GANODERIC ACID B METHYL ESTER], the IC50 is reported as 101 µM.
For `CC(CC(=O)C[C@@H](C)[C@H]1CC(=O)[C@@]2(C)C3=C(C(=O)C[C@]12C)[C@@]1(C)CC[C@H](O)C(C)(C)[C@@H]1C[C@@H]3O)C(=O)O` (some centres undefined) [GANODERIC ACID B], the IC50 was 202 µM.
`C[C@H](CC(=O)C[C@@H](C)[C@H]1CC(=O)[C@@]2(C)C3=C(C(=O)C[C@]12C)[C@@]1(C)CCC(=O)C(C)(C)[C@@H]1CC3=O)C(=O)O` [GANODERIC ACID E] was tested, and the IC50 was 101 µM.
With `CC(=O)O[C@@H]1C(=O)C2=C(C(=O)C[C@H]3C(C)(C)C(=O)CC[C@]23C)[C@]2(C)C(=O)C[C@H]([C@H](C)CC(=O)CC(C)C(=O)O)[C@@]12C` (some centres undefined) [GANODERIC ACID F] the IC50 was > 300 µM.
`CC(CC(=O)C[C@@H](C)[C@H]1CC(=O)[C@@]2(C)C3=C(C(=O)[C@@H](O)[C@]12C)[C@@]1(C)CC[C@H](O)C(C)(C)[C@@H]1C[C@@H]3O)C(=O)O` (some centres undefined) [GANODERIC ACID G] was tested, and the IC50 was 101 µM.
For `CC(=O)O[C@@H]1C(=O)C2=C(C(=O)C[C@H]3C(C)(C)[C@@H](O)CC[C@]23C)[C@]2(C)C(=O)C[C@H]([C@H](C)CC(=O)CC(C)C(=O)O)[C@@]12C` (some centres undefined) [GANODERIC ACID H], the IC50 was > 300 µM.
For `CC(CC(=O)C[C@@H](C)[C@H]1C[C@H](O)[C@@]2(C)C3=C(C(=O)C[C@]12C)[C@@]1(C)CCC(=O)C(C)(C)[C@@H]1CC3=O)C(=O)O` (some centres undefined) [GANODERIC ACID J], the IC50 was > 300 µM.
With `CC(=O)O[C@@H]1C(=O)C2=C([C@@H](O)C[C@H]3C(C)(C)[C@@H](O)CC[C@]23C)[C@]2(C)C(=O)C[C@H]([C@H](C)CC(=O)CC(C)C(=O)O)[C@@]12C` (some centres undefined) [GANODERIC ACID K] the IC50 was > 300 µM.
`C/C(=C\CC[C@@H](C)[C@H]1CC[C@@]2(C)C3=CC[C@H]4C(C)(C)[C@@H](O)CC[C@]4(C)C3=CC[C@]12C)C(=O)O` [GANODERIC ACID Y] was tested, and the IC50 was 11 µM.
`C/C(=C\CC[C@@H](C)[C@H]1CC[C@@]2(C)C3=CC[C@H]4C(C)(C)[C@@H](O)CC[C@]4(C)C3=CC[C@]12C)CO` [GANODEROL B] was tested, and the IC50 was 101 µM.
For `CC(CC(=O)C[C@@H](C)[C@H]1C[C@H](O)[C@@]2(C)C3=C(C(=O)C[C@]12C)[C@@]1(C)CCC(=O)C(C)(C)[C@@H]1CC3)C(=O)O` (some centres undefined) [GANOLUCIDIC ACID A], the IC50 was 101 µM.
`C/C(=C\CC[C@@H](C)[C@H]1C[C@H](O)[C@@]2(C)C3=C(C(=O)C[C@]12C)[C@@]1(C)CCC(=O)C(C)(C)[C@@H]1CC3)C(=O)O` [GANOLUCIDIC ACID E] was tested, and the IC50 was 11 µM.
`C/C(=C\CC[C@@H](C)[C@H]1CC[C@@]2(C)C3=C(CC[C@]12C)[C@@]1(C)CC[C@H](O)C(C)(C)[C@@H]1CC3=O)CO` [LUCIDADIOL] was tested, and the IC50 was 5 µM.
For `C[C@H](CCC(=O)O)[C@H]1CC(=O)[C@@]2(C)C3=C(C(=O)C[C@]12C)[C@@]1(C)CCC(=O)C(C)(C)[C@@H]1C[C@@H]3O` [LUCIDENIC ACID A], the IC50 was > 300 µM.

Same assay, conditions: hela
In the case of `CC(CC(=O)C[C@@H](C)[C@H]1CC(=O)[C@@]2(C)C3=C(C(=O)C[C@]12C)[C@@]1(C)CCC(=O)C(C)(C)[C@@H]1C[C@@H]3O)C(=O)O` (stereo in doubt; 10) [GANODERIC ACID D], the IC50 is reported as 31 µM.
For `CC(CC(=O)C[C@@H](C)[C@H]1CC(=O)[C@@]2(C)C3=C(C(=O)C[C@]12C)[C@@]1(C)CCC(=O)C(C)(C)[C@@H]1C[C@@H]3O)C(=O)O` (stereo in doubt; 81) [GANODERIC ACID D], the IC50 was > 300 µM.
